The source of these data is patent publication US10150771B2, “Triazolopyrazinones as PDE1 inhibitors” (H. Lundbeck A/S, priority 2014, dated 2018).

Each structure is given as a SMILES string.

Format in all cases: biochemical
The target of test [1] is PDE1A (Homo sapiens, UniProt P54750). Kind of test: PDE1 inhibition assay (SPA), PDE1A. To be noted: for IC50: concentration required to reach 50% inhibition of the enzyme, 15 nM tritium labelled cAMP, read-out: PDE1A inhibition (nM or %): IC50; for inhibition at 10 µM: 1 h, % inhibition of the enzyme at a concentration of 10 micro molar of the compound, read-out: PDE1A inhibition (nM or %): % inhib. How it is done: (§1) PDE1 Inhibition Assay PDE1A, PDE1B and PDE1C assays were performed as follows: the assays were performed in 60 μL samples containing a fixed amount of the PDE1 enzym1 (sufficient to convert 20-25% of the cyclic nucleotide substrate), a buffer (50 mM HEPES pH 7.6; 10 mM MgCl2; 0.02% Tween20), 0.1 mg/ml BSA, 15 nM tritium labelled cAMP and varying amounts of inhibitors. Reactions were initiated by addition of the cyclic nucleotide substrate, and reactions were allowed to proceed for 1 h at room temperature before being terminated through mixing with 20 μL (0.2 mg) yttrium silicate SPA beads (PerkinElmer). The beads were allowed to settle for 1 h in the dark before the plates were counted in a Wallac 1450 Microbeta counter. The measured signals were converted to activity relative to an uninhibited control (100%) and IC50 values were calculated using XIFit (model 205, IDBS).

Test [2] concerns the target PDE1C (Homo sapiens, UniProt Q14123). Kind of test: PDE1 inhibition assay (SPA), PDE1C. To be noted: concentration required to reach 50% inhibition of the enzyme; 15 nM tritium labelled cAMP; read-out: PDE1C inhibition (nM or %): IC50. As for the experimental part:
as §1

The target of test [3] is PDE1B (Homo sapiens, UniProt Q01064). Nature of the test: PDE1 inhibition assay (SPA), PDE1B. To be noted: for IC50: concentration required to reach 50% inhibition of the enzyme, 15 nM tritium labelled cAMP, read-out: PDE1B inhibition (nM or %): IC50. As for the experimental part: as §1
Sequence of PDE1B (Q01064 whole entry): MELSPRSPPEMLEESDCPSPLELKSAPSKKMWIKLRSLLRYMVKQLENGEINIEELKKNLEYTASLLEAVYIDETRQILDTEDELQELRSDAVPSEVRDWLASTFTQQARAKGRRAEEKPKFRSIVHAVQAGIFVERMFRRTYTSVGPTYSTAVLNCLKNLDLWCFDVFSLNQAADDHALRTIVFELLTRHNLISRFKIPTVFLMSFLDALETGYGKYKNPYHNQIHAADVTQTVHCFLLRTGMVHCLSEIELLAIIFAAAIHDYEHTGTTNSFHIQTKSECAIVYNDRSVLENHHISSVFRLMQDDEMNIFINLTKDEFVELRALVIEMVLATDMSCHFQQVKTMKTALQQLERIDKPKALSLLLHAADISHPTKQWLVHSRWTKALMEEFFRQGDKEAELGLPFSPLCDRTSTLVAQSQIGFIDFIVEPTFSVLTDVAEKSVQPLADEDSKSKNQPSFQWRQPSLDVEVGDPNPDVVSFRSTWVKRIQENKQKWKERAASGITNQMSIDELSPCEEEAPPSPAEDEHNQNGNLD

Sequence of PDE1C (Q14123 whole entry): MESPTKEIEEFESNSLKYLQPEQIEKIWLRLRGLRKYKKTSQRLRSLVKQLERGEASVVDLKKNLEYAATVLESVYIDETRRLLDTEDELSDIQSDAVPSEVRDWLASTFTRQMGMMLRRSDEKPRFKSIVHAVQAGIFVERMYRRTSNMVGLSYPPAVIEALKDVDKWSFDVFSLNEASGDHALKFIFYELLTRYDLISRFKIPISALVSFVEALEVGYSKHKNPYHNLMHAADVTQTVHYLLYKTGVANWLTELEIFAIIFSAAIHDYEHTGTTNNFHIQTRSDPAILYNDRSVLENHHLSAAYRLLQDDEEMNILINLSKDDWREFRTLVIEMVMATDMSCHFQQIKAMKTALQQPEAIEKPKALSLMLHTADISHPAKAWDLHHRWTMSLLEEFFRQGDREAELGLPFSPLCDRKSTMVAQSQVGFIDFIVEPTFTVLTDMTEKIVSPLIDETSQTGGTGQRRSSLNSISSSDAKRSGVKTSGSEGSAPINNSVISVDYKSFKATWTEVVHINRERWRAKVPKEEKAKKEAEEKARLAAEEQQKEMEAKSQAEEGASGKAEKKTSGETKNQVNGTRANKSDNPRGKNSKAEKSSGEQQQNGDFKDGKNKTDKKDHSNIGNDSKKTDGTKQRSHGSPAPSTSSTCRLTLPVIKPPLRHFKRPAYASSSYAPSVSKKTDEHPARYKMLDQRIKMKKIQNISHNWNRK
Sequence of PDE1A (P54750 whole entry): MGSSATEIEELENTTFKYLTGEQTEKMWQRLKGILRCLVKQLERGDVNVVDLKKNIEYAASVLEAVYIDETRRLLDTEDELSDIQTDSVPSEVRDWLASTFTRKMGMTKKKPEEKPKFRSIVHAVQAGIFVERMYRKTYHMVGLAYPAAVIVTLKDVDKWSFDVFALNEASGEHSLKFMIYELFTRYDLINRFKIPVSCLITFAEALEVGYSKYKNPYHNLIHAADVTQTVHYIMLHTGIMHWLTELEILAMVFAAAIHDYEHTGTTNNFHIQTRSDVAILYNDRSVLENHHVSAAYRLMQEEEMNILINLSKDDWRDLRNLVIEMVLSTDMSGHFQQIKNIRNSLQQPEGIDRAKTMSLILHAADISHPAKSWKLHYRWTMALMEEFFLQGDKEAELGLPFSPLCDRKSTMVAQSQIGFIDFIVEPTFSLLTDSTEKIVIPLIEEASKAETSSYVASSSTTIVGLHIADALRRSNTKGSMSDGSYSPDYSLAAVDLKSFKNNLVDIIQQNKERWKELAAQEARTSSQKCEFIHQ

As for `O=c1c2nnc(C3CCOCC3)n2cc(Cc2cccc(F)c2)n1Cc1cccc(F)c1` [6,7-bis(3-fluorobenzyl)-3-(tetrahydro-2H-pyran-4-yl)-[1,2,4]triazolo[4,3-a]pyrazin-8(7H)-one], the concentration for half-maximal inhibition (IC50) is 47 nM in test [1], 8 nM in test [2] and 40 nM in test [3].
Turning to `O=c1c2nnc(C3CCOCC3)n2cc(Cc2ccc(-c3ccccc3)cc2)n1CC1CCCCC1` [6-([1,1′-biphenyl]-4-ylmethyl)-7-(cyclohexylmethyl)-3-(tetrahydro-2H-pyran-4-yl)-[1,2,4]triazolo[4,3-a]pyrazin-8(7H)-one], the IC50 in test [1] is 0.33 nM; in test [2], 0.1 nM; in test [3] it was 0.17 nM.
For `O=c1c2nnc(C3CCOCC3)n2cc(Cc2ccccc2)n1Cc1cccc(F)c1` [6-benzyl-7-(3-fluorobenzyl)-3-(tetrahydro-2H-pyran-4-yl)-[1,2,4]triazolo[4,3-a]pyrazin-8(7H)-one], the IC50 in test [1] turned out to be 32 nM; in test [2] it was 5 nM; in test [3], 18 nM.
For the molecule `O=c1c2nnc(C3CCOCC3)n2cc(Cc2ccccc2)n1Cc1ccc(F)cc1` [6-benzyl-7-(4-fluorobenzyl)-3-(tetrahydro-2H-pyran-4-yl)-[1,2,4]triazolo[4,3-a]pyrazin-8(7H)-one], the IC50 amounted to 15 nM in test [1], 6 nM in test [2] and 12 nM in test [3].
For the molecule `O=c1c2nnc(C3CCOCC3)n2cc(Cc2ccccc2)n1CC1CCCCCC1` [6-benzyl-7-(cycloheptylmethyl)-3-(tetrahydro-2H-pyran-4-yl)-[1,2,4]triazolo[4,3-a]pyrazin-8(7H)-one], the values for the half-maximal inhibitory concentration (IC50) in test [1], in test [2] and in test [3] were 1 nM, 2 nM and 4 nM, respectively.
With `O=c1c2nnc(C3CCOCC3)n2cc(Cc2ccccc2)n1CC1CCCCC1` [6-benzyl-7-(cyclohexylmethyl)-3-(tetrahydro-2H-pyran-4-yl)-[1,2,4]triazolo[4,3-a]pyrazin-8(7H)-one], the 50% inhibitory concentration (IC50) in test [1] stood at 11 nM; in test [2], 4 nM; in test [3], 11 nM.
As to `O=c1c2nnc(C3CCOCC3)n2cc(Cc2ccccc2)n1CC1CCCC1` [6-benzyl-7-(cyclopentylmethyl)-3-(tetrahydro-2H-pyran-4-yl)-[1,2,4]triazolo[4,3-a]pyrazin-8(7H)-one], the results for the IC50 in test [1], in test [2] and in test [3] were 65 nM, 5 nM and 46 nM, respectively.
For `Cn1c(Cc2ccccc2)cn2c(C3CCOCC3)nnc2c1=O` [6-benzyl-7-methyl-3-(tetrahydro-2H-pyran-4-yl)-[1,2,4]triazolo[4,3-a]pyrazin-8(7H)-one], the IC50 came out at 2000 nM in test [1], 2800 nM in test [2] and 1600 nM in test [3].
`O=c1c2nnc(C3CCOCC3)n2cc(Br)n1Cc1cccc(F)c1` [6-bromo-7-(3-fluorobenzyl)-3-(tetrahydro-2H-pyran-4-yl)-[1,2,4]triazolo[4,3-a]pyrazin-8(7H)-one]: the figures for the half-inhibitory concentration (IC50) in test [1], in test [2] and in test [3] were 114 nM, 24 nM and 150 nM, respectively.
On the same counts, the results for `CCCc1nnc2c(=O)n(Cc3cccc(F)c3)c(Br)cn12` [6-bromo-7-(3-fluorobenzyl)-3-propyl-[1,2,4]triazolo[4,3-a]pyrazin-8(7H)-one] are 63 nM, 20 nM and 99 nM.
Turning to `O=c1c2nnc(C3CCOCC3)n2cc(Br)n1CC1CCCCCC1` [6-bromo-7-(cycloheptylmethyl)-3-(tetrahydro-2H-pyran-4-yl)-[1,2,4]triazolo[4,3-a]pyrazin-8(7H)-one], the figures for the IC50 in test [1], in test [2] and in test [3] were 13 nM, 3 nM and 4 nM, respectively.
In the same order, the values of `O=c1c2nnc(C3CCOCC3)n2cc(Br)n1CC1CCCCC1` [6-bromo-7-(cyclohexylmethyl)-3-(tetrahydro-2H-pyran-4-yl)-[1,2,4]triazolo[4,3-a]pyrazin-8(7H)-one] are 12 nM, 3 nM and 17 nM.
With `O=c1c2nnc(C3CCOCC3)n2cc(Br)n1CC1CCCC1` [6-bromo-7-(cyclopentylmethyl)-3-(tetrahydro-2H-pyran-4-yl)-[1,2,4]triazolo[4,3-a]pyrazin-8(7H)-one], the half-inhibitory concentration (IC50) in test [1] was 164 nM; in test [2], 6 nM; in test [3], 140 nM.
As for `CCCc1nnc2c(=O)n(Cc3cccc(F)c3)c(CC)cn12` [6-ethyl-7-(3-fluorobenzyl)-3-propyl-[1,2,4]triazolo[4,3-a]pyrazin-8(7H)-one], the concentration for half-maximal inhibition (IC50) in test [1] was 117 nM; in test [2] it was 50 nM; in test [3], 180 nM.
In the same order, the values of `CCCc1nnc2c(=O)n(Cc3ccccc3Cl)ccn12` [7-(2-Chlorobenzyl)-3-propyl-[1,2,4]triazolo[4,3-a]pyrazin-8(7H)-one] are 2000 nM, 430 nM and 2500 nM.
On the same counts, the results for `CCCc1nnc2c(=O)n(Cc3ccccc3F)ccn12` [7-(2-Fluorobenzyl)-3-propyl-[1,2,4]triazolo[4,3-a]pyrazin-8(7H)-one] are 860 nM, 130 nM and 1000 nM.
As to `CCCc1nnc2c(=O)n(Cc3ccccc3C)ccn12` [7-(2-Methylbenzyl)-3-propyl-[1,2,4]triazolo[4,3-a]pyrazin-8(7H)-one], the inhibition at 10 µM came to 53% in test [1] and 42% in test [3] (1 h, % inhibition of the enzyme at a concentration of 10 micro molar of the compound, read-out: PDE1B inhibition (nM or %): % inhib). Further, the IC50 in test [2] amounted to 2400 nM.
As to `CCCc1nnc2c(=O)n(Cc3cccc(Cl)c3)ccn12` [7-(3-Chlorobenzyl)-3-propyl-[1,2,4]triazolo[4,3-a]pyrazin-8(7H)-one], the IC50 in test [1] stood at 1400 nM; in test [2], 160 nM; in test [3], 1300 nM.
Regarding `O=c1c2nnc(CC(F)(F)F)n2ccn1Cc1cccc(F)c1` [7-(3-Fluorobenzyl)-3-(2,2,2-trifluoroethyl)-[1,2,4]triazolo[4,3-a]pyrazin-8(7H)-one], the concentration for half-maximal inhibition (IC50) in test [1] stood at 2000 nM; in test [2], 380 nM; in test [3] it was 1400 nM.
Take `O=c1c2nnc(CCF)n2ccn1Cc1cccc(F)c1` [7-(3-Fluorobenzyl)-3-(2-fluoroethyl)-[1,2,4]triazolo[4,3-a]pyrazin-8(7H)-one]: the IC50 in test [1] was 2900 nM; in test [2], 620 nM; in test [3], 3000 nM.
In the case of `O=c1c2nnc([C@H]3CC[C@H](O)CC3)n2ccn1Cc1cccc(F)c1` [7-(3-Fluorobenzyl)-3-((1r,4r)-4-hydroxycyclohexyl)-[1,2,4]triazolo[4,3-a]pyrazin-8(7H)-one], the values for the half-inhibitory concentration (IC50) in test [1], in test [2] and in test [3] were 1000 nM, 200 nM and 630 nM, respectively.
For `O=c1c2nnc([C@H]3CC[C@@H](O)CC3)n2ccn1Cc1cccc(F)c1` [7-(3-Fluorobenzyl)-3-((1s,4s)-4-hydroxycyclohexyl)-[1,2,4]triazolo[4,3-a]pyrazin-8(7H)-one], the IC50 in test [1] is 1800 nM; in test [2], 350 nM; in test [3] it was 1000 nM.
As to `O=c1c2nnc(CC3CCOC3)n2ccn1Cc1cccc(F)c1` (stereo not drawn) [7-(3-Fluorobenzyl)-3-((tetrahydrofuran-3-yl)methyl)-[1,2,4]triazolo[4,3-a]pyrazin-8(7H)-one], the figures for the IC50 in test [1], in test [2] and in test [3] were 1200 nM, 420 nM and 1900 nM, respectively.
Take `CCCCC(CC)c1nnc2c(=O)n(Cc3cccc(F)c3)ccn12` (stereo not drawn) [7-(3-Fluorobenzyl)-3-(heptan-3-yl)-[1,2,4]triazolo[4,3-a]pyrazin-8(7H)-one]: the IC50 in test [1] is 3200 nM; in test [2], 480 nM; in test [3], 1600 nM.
On to `O=c1c2nnc(C3COC3)n2ccn1Cc1cccc(F)c1` [7-(3-Fluorobenzyl)-3-(oxetan-3-yl)-[1,2,4]triazolo[4,3-a]pyrazin-8(7H)-one], for which the inhibition at 10 µM in test [1] worked out at 67%. The IC50 in test [2] worked out at 1700 nM; in test [3] it was 7200 nM.
Consider `O=c1c2nnc(C3CCOCC3)n2ccn1Cc1cccc(F)c1` [7-(3-Fluorobenzyl)-3-(tetrahydro-2H-pyran-4-yl)-[1,2,4]triazolo[4,3-a]pyrazin-8(7H)-one], for which the results for the half-maximal inhibitory concentration (IC50) in test [1], in test [2] and in test [3] were 730 nM, 140 nM and 680 nM, respectively.
For the molecule `CCCc1nnc2c(=O)n(Cc3cccc(F)c3)ccn12` [7-(3-Fluorobenzyl)-3-propyl-[1,2,4]triazolo[4,3-a]pyrazin-8(7H)-one], the IC50 in test [1] is 1100 nM; in test [2], 190 nM; in test [3] it was 1200 nM.
As to `CCCc1nnc2c(=O)n(Cc3cccc(C)c3)ccn12` [7-(3-Methylbenzyl)-3-propyl-[1,2,4]triazolo[4,3-a]pyrazin-8(7H)-one], the values for the concentration for half-maximal inhibition (IC50) in test [1], in test [2] and in test [3] were 1500 nM, 170 nM and 1600 nM, respectively.
In the case of `CCCc1nnc2c(=O)n(Cc3cccc(F)c3)cc(C)n12` [7-(3-fluorobenzyl)-5-methyl-3-propyl-[1,2,4]triazolo[4,3-a]pyrazin-8(7H)-one], the IC50 is 1360 nM in test [1], 260 nM in test [2] and 1000 nM in test [3].

The term IC50 denotes the midpoint of a concentration-inhibition curve. A word on the inhibition: it is the percentage by which the read-out fell short of the control.
